Experimental data published in patent US20150307938A1, “METHOD TO IDENTIFY A NOVEL CLASS OF IMMUNOLOGIC ADJUVANTS” (Lancell, L.L.C., priority 2011, published 2015).

System: skin
Test: Affymetrix microarray of skin, DBP-4 hr and analogs vs. untreated; gene selection by log-2 fold change, Wilcoxon, Kendall tau (Tables 8, 9)
Assay type: in vivo, mouse
[1] = Kendall tau, expression vs. output

## CCCCOC(=O)c1ccccc1C(=O)OCCCC [DBP, dibutylphthalate]
[1]
  Oxr1 NM_001130166_at Kendall: Yes
  Pgam2 NM_018870_at Kendall: No
  Pigyl NM_001082532_at Kendall: Yes
  Pparg NM_001127330_at Kendall: Yes
  Ppih NM_001110129_at Kendall: Yes
  Prg4 NM_021400_at Kendall: No
  Retnla NM_020509_at Kendall: No
  Rffl NM_001007465_at Kendall: Yes
  Rn18s NR_003278_at Kendall: No
  Rpl3l NM_025425_at Kendall: No
  Slc39a14 NM_001135151_at Kendall: Yes
  Sln NM_025540_at Kendall: No
  Smpx NM_025357_at Kendall: No
  Tnfrsf9 NM_001077508_at Kendall: Yes
  Tnfrsf9 NM_001077509_at Kendall: Yes
  Tnni1 NM_021467_at Kendall: No
  Trdn NM_029726_at Kendall: No
  Trf NM_133977_at Kendall: No
  Trp63 NM_001127259_at Kendall: Yes
  Trp63 NM_001127260_at Kendall: Yes
  Trp63 NM_001127262_at Kendall: Yes
  Trp63 NM_001127264_at Kendall: Yes
  Ttn NM_028004_at Kendall: No
  Wbp1 NM_001083922_at Kendall: Yes
  Wbp1 NM_001083923_at Kendall: Yes
  Wfdc2 NM_026323_at Kendall: No
  Zfp68 NM_001044747_at Kendall: Yes
  Zfp187 NM_001013786_at Kendall: Yes
  Zfp518b NM_001081144_at Kendall: Yes
  Zfp943 NM_001025373_at Kendall: Yes
Map3k8 NM_007746_at, DBP-4 hr vs. untreated
  Wilcoxon: No
Map3k8 NM_007746_at, Kendall tau coefficient
  Kendall: No
NM_007403_at, DBP-4 hr
  DBP Expression: Adam8: 8.84
NM_007464_at, DBP-4 hr
  DBP Expression: Birc3: 10.36
NM_007570_at, DBP-4 hr
  DBP Expression: Btg2: 10.63
NM_007679_at, DBP-4 hr
  DBP Expression: Cebpd: 10.17
NM_007706_at, DBP-4 hr
  DBP Expression: Socs2: 8.92
NM_007707_at, DBP-4 hr
  DBP Expression: Socs3: 9.48
NM_007746_at, DBP-4 hr
  DBP Expression: Map3k8: 8.72
NM_007780_at, DBP-4 hr
  DBP Expression: Csf2rb: 7.73
NM_007791_at, DBP-4 hr
  DBP Expression: Csrp1: 9.89
NM_007913_at, DBP-4 hr
  DBP Expression: Egr1: 12.15
NM_007974_at, DBP-4 hr
  DBP Expression: F2rl1: 9.38
NM_008009_at, DBP-4 hr
  DBP Expression: Fgfbp1: 11.47
NM_008125_at, DBP-4 hr
  DBP Expression: Gjb2: 8.85
NM_008152_at, DBP-4 hr
  DBP Expression: Gpr65: 5.48
NM_008176_at, DBP-4 hr
  DBP Expression: Cxcl1: 10.24
NM_008194_at, DBP-4 hr
  DBP Expression: Gyk: 9.63
NM_008230_at, DBP-4 hr
  DBP Expression: Hdc: 8.51
NM_008348_at, DBP-4 hr
  DBP Expression: Il10ra: 6.97
NM_008361_at, DBP-4 hr
  DBP Expression: Il1b: 7.67
NM_008372_at, DBP-4 hr
  DBP Expression: Il7r: 7.70
NM_008416_at, DBP-4 hr
  DBP Expression: Junb: 9.71
NM_008476_at, DBP-4 hr
  DBP Expression: Krt6a: 10.76
NM_008630_at, DBP-4 hr
  DBP Expression: Mt2: 13.23
NM_008871_at, DBP-4 hr
  DBP Expression: Serpine1: 8.32
NM_009140_at, DBP-4 hr
  DBP Expression: Cxcl2: 8.67
NM_009264_at, DBP-4 hr
  DBP Expression: Sprr1a: 10.84
NM_009285_at, DBP-4 hr
  DBP Expression: Stc1: 7.56
NM_009396_at, DBP-4 hr
  DBP Expression: Tnfaip2: 8.85
NM_009397_at, DBP-4 hr
  DBP Expression: Tnfaip3: 7.22
NM_009398_at, DBP-4 hr
  DBP Expression: Tnfaip6: 8.79
NM_009421_at, DBP-4 hr
  DBP Expression: Traf1: 6.04
NM_009834_at, DBP-4 hr
  DBP Expression: Ccrn4l: 10.05
NM_009851_at, DBP-4 hr
  DBP Expression: Cd44: 9.82
NM_009890_at, DBP-4 hr
  DBP Expression: Ch25h: 7.68
NM_009895_at, DBP-4 hr
  DBP Expression: Cish: 9.37
NM_010120_at, DBP-4 hr
  DBP Expression: Eif1a: 9.39
NM_010139_at, DBP-4 hr
  DBP Expression: Epha2: 8.60
NM_010220_at, DBP-4 hr
  DBP Expression: Fkbp5: 8.58
NM_010235_at, DBP-4 hr
  DBP Expression: Fosl1: 6.85
NM_010415_at, DBP-4 hr
  DBP Expression: Hbegf: 8.85
NM_010444_at, DBP-4 hr
  DBP Expression: Nr4a1: 10.34
NM_010493_at, DBP-4 hr
  DBP Expression: Icam1: 10.54
NM_010499_at, DBP-4 hr
  DBP Expression: Ier2: 10.73
NM_010516_at, DBP-4 hr
  DBP Expression: Cyr61: 9.37
NM_010591_at, DBP-4 hr
  DBP Expression: Jun: 9.74
NM_011019_at, DBP-4 hr
  DBP Expression: Osmr: 7.49
NM_011113_at, DBP-4 hr
  DBP Expression: Plaur: 7.68
NM_011227_at, DBP-4 hr
  DBP Expression: Rab20: 6.73
NM_011331_at, DBP-4 hr
  DBP Expression: Ccl12: 8.47
NM_011333_at, DBP-4 hr
  DBP Expression: Ccl2: 9.45
NM_011404_at, DBP-4 hr
  DBP Expression: Slc7a5: 10.00
NM_011498_at, DBP-4 hr
  DBP Expression: Bhlhe40: 10.32
NM_011574_at, DBP-4 hr
  DBP Expression: Cirh1a: 9.51
NM_011756_at, DBP-4 hr
  DBP Expression: Zfp36: 10.39
NM_013498_at, DBP-4 hr
  DBP Expression: Crem: 6.91
NM_013542_at, DBP-4 hr
  DBP Expression: Gzmb: 5.74
NM_013602_at, DBP-4 hr
  DBP Expression: Mt1: 12.73
